For experiment [1], the target named is Glycogen synthase kinase-3 beta (Homo sapiens, UniProt P49841).
Description: Inhibition of GSK3-beta assessed as NADH level after 10 mins by pyruvate kinase/lactate dehydrogenase coupled spectrophotometric assay
In experiment [2] the target is Proto-oncogene tyrosine-protein kinase Src (Homo sapiens, UniProt P12931). As to the kind of experiment: Inhibition of SRC.
Experiment [3] has as its target Cyclin-dependent kinase 2 (Homo sapiens, UniProt P24941).
Experiment [4] addresses Tyrosine-protein kinase JAK2 (Homo sapiens, UniProt O60674). In words: Inhibition of JAK2.
Experiment [5] addresses Hepatocyte growth factor receptor (Homo sapiens, UniProt P08581).
In experiment [6] the target is T1, Receptor-type tyrosine-protein kinase FLT3 (Homo sapiens, UniProt P36888).
T1 sequence (P36888 whole entry): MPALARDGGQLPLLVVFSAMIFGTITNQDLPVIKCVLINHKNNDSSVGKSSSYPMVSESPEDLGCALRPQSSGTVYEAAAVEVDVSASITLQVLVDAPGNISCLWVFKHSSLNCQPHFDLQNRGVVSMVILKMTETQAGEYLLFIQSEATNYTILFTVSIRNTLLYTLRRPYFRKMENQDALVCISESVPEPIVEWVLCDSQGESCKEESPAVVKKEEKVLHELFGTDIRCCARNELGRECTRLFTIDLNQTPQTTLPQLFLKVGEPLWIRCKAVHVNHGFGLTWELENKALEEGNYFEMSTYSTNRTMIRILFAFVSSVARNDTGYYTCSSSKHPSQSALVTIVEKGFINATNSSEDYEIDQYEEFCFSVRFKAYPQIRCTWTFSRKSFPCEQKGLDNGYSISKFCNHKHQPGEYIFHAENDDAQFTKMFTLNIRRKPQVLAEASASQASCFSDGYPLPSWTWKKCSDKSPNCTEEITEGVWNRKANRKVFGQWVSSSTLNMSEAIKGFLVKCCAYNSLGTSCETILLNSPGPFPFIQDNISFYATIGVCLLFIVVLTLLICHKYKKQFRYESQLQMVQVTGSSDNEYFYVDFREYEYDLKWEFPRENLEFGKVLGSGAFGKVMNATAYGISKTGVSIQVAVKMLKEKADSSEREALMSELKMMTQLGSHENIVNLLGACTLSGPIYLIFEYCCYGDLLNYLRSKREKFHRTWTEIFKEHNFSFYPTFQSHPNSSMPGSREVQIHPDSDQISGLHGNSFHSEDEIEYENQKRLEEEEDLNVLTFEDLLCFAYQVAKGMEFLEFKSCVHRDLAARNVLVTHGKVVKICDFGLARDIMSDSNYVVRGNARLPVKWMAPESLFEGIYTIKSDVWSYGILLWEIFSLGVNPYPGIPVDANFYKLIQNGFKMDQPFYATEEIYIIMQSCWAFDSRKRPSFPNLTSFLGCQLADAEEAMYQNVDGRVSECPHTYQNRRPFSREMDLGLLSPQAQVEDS
In words: Inhibition of FLT3.

Experiment [7] addresses Vascular endothelial growth factor receptor 2 (Homo sapiens, UniProt P35968). As to the kind of experiment: Inhibition of KDR.
Experiment [8] addresses Rho-associated protein kinase 1 (Homo sapiens, UniProt Q13464). In words: Inhibition of ROCK1.
In experiment [9] the target is Mitogen-activated protein kinase 10 (Homo sapiens, UniProt P53779). As to the kind of experiment: Inhibition of JNK3.
Mitogen-activated protein kinase 10, sequence (P53779 whole entry): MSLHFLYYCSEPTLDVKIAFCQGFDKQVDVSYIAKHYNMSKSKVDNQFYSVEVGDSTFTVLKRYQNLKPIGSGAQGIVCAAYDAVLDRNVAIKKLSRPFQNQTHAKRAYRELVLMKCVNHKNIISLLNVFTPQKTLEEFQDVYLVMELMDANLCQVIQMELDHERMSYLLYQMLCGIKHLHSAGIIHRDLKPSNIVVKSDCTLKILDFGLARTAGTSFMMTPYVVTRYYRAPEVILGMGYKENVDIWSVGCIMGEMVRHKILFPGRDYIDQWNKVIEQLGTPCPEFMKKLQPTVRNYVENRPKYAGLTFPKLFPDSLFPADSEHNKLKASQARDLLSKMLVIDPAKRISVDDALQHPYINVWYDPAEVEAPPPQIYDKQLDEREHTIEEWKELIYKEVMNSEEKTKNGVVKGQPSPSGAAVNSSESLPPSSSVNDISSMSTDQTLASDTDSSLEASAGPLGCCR
In experiment [10] the target is Serine/threonine-protein kinase PLK1 (Homo sapiens, UniProt P53350). As to the kind of experiment: Inhibition of PLK1.
Serine/threonine-protein kinase PLK1, sequence (P53350 whole entry): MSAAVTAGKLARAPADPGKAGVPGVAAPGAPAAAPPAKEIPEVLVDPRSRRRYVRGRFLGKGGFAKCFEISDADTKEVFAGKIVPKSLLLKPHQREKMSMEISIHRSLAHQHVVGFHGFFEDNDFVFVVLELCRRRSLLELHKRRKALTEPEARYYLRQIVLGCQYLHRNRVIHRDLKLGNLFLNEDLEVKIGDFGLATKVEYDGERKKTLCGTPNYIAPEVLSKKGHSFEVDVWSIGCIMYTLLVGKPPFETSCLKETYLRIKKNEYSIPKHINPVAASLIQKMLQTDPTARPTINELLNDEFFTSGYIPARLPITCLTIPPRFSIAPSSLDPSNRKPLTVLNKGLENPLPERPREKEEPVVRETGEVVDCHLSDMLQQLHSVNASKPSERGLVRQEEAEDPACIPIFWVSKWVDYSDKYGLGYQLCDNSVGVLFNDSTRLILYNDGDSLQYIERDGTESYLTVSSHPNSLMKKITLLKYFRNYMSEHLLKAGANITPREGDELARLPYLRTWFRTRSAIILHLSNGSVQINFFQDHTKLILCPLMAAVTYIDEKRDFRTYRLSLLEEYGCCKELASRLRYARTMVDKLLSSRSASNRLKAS
Experiment [11] in a line: Inhibition of PKA.
The target in experiment [12] is T2, Interleukin-1 receptor-associated kinase 4 (Homo sapiens, UniProt Q9NWZ3).
T2 sequence (Q9NWZ3 whole entry): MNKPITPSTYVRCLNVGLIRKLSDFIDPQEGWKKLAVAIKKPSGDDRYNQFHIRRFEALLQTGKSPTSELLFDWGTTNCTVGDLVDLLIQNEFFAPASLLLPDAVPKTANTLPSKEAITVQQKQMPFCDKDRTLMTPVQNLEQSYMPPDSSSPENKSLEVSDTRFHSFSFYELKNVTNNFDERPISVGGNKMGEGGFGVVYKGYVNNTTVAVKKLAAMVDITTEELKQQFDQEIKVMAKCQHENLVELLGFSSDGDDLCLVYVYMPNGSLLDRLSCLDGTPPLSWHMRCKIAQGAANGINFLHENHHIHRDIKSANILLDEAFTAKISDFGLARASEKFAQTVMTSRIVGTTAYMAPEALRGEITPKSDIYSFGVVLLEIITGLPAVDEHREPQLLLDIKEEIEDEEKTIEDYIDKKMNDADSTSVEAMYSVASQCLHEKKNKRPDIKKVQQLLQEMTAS
In words: Inhibition of IRAK4.

Experiment [13] deals with Phosphatidylinositol 4,5-bisphosphate 3-kinase catalytic subunit gamma isoform (Homo sapiens, UniProt P48736). In words: Inhibition of PI3Kgamma.
Experiment [14] deals with Tyrosine-protein kinase SYK (Homo sapiens, UniProt P43405).

The structures appear in SMILES notation. Some results are limits rather than exact numbers.

What is called Ki is the equilibrium dissociation constant of an inhibitor or competing ligand from its target.

Vascular endothelial growth factor receptor 2, sequence (P35968 whole entry): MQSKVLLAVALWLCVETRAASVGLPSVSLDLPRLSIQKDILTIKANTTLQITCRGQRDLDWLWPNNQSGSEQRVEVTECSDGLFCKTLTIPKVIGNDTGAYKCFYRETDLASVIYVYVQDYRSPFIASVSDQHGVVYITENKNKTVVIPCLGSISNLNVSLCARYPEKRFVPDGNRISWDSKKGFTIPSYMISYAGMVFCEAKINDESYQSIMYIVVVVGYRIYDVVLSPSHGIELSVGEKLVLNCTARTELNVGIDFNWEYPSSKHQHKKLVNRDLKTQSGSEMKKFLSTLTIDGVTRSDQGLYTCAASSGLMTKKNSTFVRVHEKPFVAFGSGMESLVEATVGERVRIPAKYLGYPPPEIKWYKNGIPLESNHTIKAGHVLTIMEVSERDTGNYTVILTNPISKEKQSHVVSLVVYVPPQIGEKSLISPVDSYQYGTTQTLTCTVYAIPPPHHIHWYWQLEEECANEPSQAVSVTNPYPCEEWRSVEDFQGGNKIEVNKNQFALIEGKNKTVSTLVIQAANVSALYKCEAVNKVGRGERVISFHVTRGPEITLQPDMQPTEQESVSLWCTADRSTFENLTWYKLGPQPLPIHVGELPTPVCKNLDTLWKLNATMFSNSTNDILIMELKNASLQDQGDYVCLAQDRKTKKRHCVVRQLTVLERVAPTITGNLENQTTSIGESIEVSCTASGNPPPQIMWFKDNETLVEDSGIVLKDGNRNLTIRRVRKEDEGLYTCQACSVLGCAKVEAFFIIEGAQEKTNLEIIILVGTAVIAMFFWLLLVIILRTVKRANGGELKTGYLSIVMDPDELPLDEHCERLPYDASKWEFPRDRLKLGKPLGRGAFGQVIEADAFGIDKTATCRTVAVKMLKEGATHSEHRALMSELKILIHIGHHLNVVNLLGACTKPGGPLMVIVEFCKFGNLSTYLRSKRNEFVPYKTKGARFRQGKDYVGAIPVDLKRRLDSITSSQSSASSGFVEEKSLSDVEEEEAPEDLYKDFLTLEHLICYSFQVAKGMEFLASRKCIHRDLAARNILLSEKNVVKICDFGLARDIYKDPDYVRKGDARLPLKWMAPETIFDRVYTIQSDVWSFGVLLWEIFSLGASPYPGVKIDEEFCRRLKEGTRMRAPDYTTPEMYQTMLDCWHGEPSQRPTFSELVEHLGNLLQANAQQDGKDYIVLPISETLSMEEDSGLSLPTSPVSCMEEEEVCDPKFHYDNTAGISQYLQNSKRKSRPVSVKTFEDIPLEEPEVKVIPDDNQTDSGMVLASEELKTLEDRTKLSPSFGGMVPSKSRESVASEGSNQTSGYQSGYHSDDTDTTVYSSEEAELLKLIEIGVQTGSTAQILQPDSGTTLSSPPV
Proto-oncogene tyrosine-protein kinase Src, sequence (P12931 2-536 limits assumed): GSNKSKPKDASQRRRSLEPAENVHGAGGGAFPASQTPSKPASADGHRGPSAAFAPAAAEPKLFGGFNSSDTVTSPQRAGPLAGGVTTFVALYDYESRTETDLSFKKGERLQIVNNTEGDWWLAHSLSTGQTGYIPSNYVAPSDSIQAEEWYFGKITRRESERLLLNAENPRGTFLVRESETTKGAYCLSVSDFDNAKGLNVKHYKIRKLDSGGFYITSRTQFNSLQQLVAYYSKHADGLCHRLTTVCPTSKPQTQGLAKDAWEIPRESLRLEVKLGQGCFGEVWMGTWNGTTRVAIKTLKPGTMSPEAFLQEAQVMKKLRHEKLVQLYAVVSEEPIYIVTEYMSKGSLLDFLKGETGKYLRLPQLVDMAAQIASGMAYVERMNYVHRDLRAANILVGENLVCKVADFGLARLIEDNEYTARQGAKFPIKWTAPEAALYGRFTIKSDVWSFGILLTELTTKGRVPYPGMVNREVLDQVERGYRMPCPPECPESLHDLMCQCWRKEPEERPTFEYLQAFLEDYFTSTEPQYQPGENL
Rho-associated protein kinase 1, sequence (Q13464 whole entry): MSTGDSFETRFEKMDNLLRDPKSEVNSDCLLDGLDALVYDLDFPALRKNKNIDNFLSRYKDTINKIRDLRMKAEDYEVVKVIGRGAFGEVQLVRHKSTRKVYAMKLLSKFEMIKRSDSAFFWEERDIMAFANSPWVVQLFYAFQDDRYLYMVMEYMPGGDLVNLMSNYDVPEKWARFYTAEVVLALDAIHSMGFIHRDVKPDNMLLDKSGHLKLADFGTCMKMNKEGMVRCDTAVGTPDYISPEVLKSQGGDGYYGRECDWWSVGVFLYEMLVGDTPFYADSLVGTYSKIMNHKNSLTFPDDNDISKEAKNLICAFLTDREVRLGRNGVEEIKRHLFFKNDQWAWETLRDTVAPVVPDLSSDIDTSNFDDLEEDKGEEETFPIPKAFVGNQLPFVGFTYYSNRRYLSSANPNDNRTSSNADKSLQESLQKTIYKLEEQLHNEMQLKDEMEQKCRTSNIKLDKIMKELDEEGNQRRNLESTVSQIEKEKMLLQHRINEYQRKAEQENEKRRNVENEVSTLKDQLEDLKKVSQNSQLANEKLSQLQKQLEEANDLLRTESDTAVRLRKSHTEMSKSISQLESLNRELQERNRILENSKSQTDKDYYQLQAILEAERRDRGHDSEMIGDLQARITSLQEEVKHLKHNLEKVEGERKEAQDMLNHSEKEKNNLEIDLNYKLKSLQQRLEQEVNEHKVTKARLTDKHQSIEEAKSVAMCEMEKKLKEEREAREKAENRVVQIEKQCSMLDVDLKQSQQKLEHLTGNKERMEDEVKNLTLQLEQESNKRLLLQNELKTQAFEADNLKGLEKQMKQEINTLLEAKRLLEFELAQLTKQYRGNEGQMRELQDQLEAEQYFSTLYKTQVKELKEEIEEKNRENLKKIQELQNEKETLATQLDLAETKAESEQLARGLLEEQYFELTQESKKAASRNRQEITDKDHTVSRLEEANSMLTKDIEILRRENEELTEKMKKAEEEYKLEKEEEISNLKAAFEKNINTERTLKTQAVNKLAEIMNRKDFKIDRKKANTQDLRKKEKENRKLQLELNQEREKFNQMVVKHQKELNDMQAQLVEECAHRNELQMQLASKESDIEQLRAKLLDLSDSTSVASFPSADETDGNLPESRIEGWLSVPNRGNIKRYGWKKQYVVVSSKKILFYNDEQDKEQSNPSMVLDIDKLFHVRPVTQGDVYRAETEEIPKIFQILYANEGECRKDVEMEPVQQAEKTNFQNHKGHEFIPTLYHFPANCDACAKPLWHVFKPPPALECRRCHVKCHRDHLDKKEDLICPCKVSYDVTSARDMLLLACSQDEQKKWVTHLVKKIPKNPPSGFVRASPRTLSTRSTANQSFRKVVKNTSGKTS
Glycogen synthase kinase-3 beta, sequence (P49841 whole entry): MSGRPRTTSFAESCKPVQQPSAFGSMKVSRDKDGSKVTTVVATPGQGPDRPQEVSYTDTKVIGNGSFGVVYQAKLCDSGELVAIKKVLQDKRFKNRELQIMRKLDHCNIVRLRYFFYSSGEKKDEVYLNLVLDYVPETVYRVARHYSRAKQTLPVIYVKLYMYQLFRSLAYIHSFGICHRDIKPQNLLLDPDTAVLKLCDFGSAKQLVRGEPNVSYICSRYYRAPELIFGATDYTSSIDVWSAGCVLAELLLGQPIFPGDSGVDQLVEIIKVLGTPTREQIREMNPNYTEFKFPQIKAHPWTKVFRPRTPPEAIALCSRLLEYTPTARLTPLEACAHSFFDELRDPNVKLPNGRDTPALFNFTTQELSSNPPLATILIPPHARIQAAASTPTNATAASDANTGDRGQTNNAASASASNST

`COc1ccncc1C1=NNC(=O)/C1=N\Nc1ccncc1`: in experiment [1], the affinity corresponds to a Ki of 16 nM.
On the same count and under the same terms, as for `CC1=NNC(=O)/C1=N\Nc1ccccc1Cl`, the figure is 460 nM; as for `COc1cccc(C2=NNC(=O)/C2=N\Nc2ccc(Cl)cc2)c1`, 9 nM; as for `COc1ccc(C2=NNC(=O)/C2=N\Nc2cccc(Cl)c2)cc1`, 1.9 nM.
`COc1ccc(C2=NNC(=O)/C2=N\Nc2cccnc2)cc1`: the Ki was above 4000 nM in experiment [2]; 62 nM in experiment [3]; above 4000 nM in experiment [4]; above 4000 nM in experiment [5]; 130 nM in experiment [6]; 3400 nM in experiment [7]. In addition, the Ki in experiment [8] is above 4000 nM; in experiment [9], above 4000 nM; in experiment [10] it was above 4000 nM; in experiment [11], above 4000 nM; in experiment [12], 1500 nM; in experiment [1], 2 nM.
`COc1cccc(N/N=C2\C(=O)NN=C2c2cnccc2OC)c1`: the Ki in experiment [1] came out at 3.7 nM.
With `COc1ccc(N/N=C2\C(=O)NN=C2c2cnccc2OC)cc1`, affinity in experiment [1] was put at a Ki of 2 nM. Against the preceding compound, the Ki is about 1.9-fold lower.
Still for that read-out and setting: as for `COc1cccc(C2=NNC(=O)/C2=N\Nc2ccccc2)c1`, the figure is 39 nM.
The same measure, in the same setting: then `COc1cccc(C2=NNC(=O)/C2=N\Nc2cccc(Cl)c2)c1`, with 8 nM.
In experiment [1], `CC(C)C1=NNC(=O)/C1=N\Nc1ccccc1Cl` had a Ki above 3700 nM.
In experiment [1], `O=C1NN=C(c2ccccn2)/C1=N/Nc1ccccc1Cl` displayed a Ki of 650 nM.
The compound `O=C1NN=C(c2cccnc2)/C1=N/Nc1ccccc1Cl` came in with an inhibitory constant (Ki) in experiment [1] of 200 nM.
In experiment [1], `O=C1NN=C(c2ccncc2)/C1=N/Nc1ccccc1Cl` yielded a Ki of 250 nM.
Same read-out and setting: then `O=C1NN=C(c2ccccc2)/C1=N/Nc1ccccc1Cl`, with 720 nM.
`COc1cccc(C2=NNC(=O)/C2=N\Nc2ccc(N(C)C)cc2)c1` gave a Ki in [1] of 9 nM. This Ki lies about 80-fold lower than the previous one.
The same measure, in the same setting: as for `COc1cccc(C2=NNC(=O)/C2=N\Nc2ccc(N3CCOCC3)cc2)c1`, the figure is 59 nM; as for `COc1ccc(C2=NNC(=O)/C2=N\Nc2ccc(Cl)cc2)cc1`, 2 nM.
Same read-out and setting: then `O=C1NN=C/C1=N/Nc1ccccc1Cl`, with 1490 nM.
Take `COc1ccc(C2=NNC(=O)/C2=N\Nc2cccc(OC)c2)cc1`: the Ki in experiment [2] is above 4000 nM; in [3] it was 95 nM; in experiment [4], above 1600 nM; in experiment [5], above 4000 nM; in experiment [6], 66 nM; in [7] it was 1800 nM. Further, the Ki was above 4000 nM in experiment [8]; above 4000 nM in experiment [9]; above 4000 nM in experiment [10]; above 4000 nM in experiment [11]; 0.8 nM in experiment [1].
For `COc1cccc(C2=NNC(=O)/C2=N\Nc2ccccc2Cl)c1`, the Ki in experiment [1] was 850 nM. That is a sub-micromolar value.
Still for that read-out and setting: as for `COc1ccc(C2=NNC(=O)/C2=N\Nc2ccc(C#N)cc2)cc1`, the figure is below 2 nM.
On the same count and under the same terms, then `COc1ccc(C2=NNC(=O)/C2=N\Nc2ccncc2)cc1`, with 14 nM; and `COc1ccc(C2=NNC(=O)/C2=N\Nc2ccc(N(C)C)cc2)cc1`, with 110 nM.
As for `CCN(CC)c1ccc(N/N=C2\C(=O)NN=C2c2ccc(OC)cc2)cc1`, in experiment [1], the affinity, expressed as Ki, was 16 nM.
In experiment [1], `COc1ccncc1C1=NNC(=O)/C1=N\Nc1ccc(C#N)cc1` showed a Ki of 8.3 nM.
On the same count and under the same terms, as for `COc1ccncc1C1=NNC(=O)/C1=N\Nc1cccnc1`, the figure is 23 nM; as for `COc1ccccc1N/N=C1\C(=O)NN=C1c1ccccc1`, above 4000 nM.
In experiment [1], `COc1cccc(N/N=C2\C(=O)NN=C2c2ccccc2)c1` yielded a Ki of 35 nM.
On the same count and under the same terms, then `COc1ccc(C2=NNC(=O)/C2=N\Nc2ccccc2Cl)cc1OC`, with 44 nM; and `O=C1NN=C(c2ccccc2)/C1=N/Nc1ccccc1`, with 99 nM; and `O=C1NN=C(c2ccccc2)/C1=N/Nc1cccc(Cl)c1`, with 120 nM.
In experiment [1], `O=C1NN=C(c2ccccc2)/C1=N/Nc1ccc(Cl)cc1` gave a Ki of 23 nM.
Compound `COc1ccncc1C1=NNC(=O)/C1=N\Nc1ccc(C(=O)O)cc1` came in with a Ki in [1] of 7.7 nM.
In experiment [1], `COc1ccncc1C1=NNC(=O)/C1=N\Nc1ccc(N2CCOCC2)cc1` had a Ki of 50 nM.
On the same count and under the same terms, then `COc1ccc(N/N=C2\C(=O)NN=C2c2ccccn2)cc1`, with 640 nM; and `COc1ccc(N/N=C2\C(=O)NN=C2c2cccnc2)cc1`, with 20 nM.
Same read-out and setting: then `COc1ccc(N/N=C2\C(=O)NN=C2c2ccncc2)cc1`, with 30 nM.
The compound `COc1ccc(N/N=C2\C(=O)NN=C2c2cccc(OC)c2)cc1` displayed a Ki in [1] of 18 nM.
Regarding `COc1ccc(N/N=C2\C(=O)NN=C2c2ccc(OC)cc2)cc1`, affinity in [1] was put at a Ki of 2 nM.
The same measure, in the same setting: as for `COc1cccc(N/N=C2\C(=O)NN=C2c2cccc(OC)c2)c1`, the figure is 5 nM.
In turn, `COc1cccc(C2=NNC(=O)/C2=N\Nc2ccc(C#N)cc2)c1` displayed a Ki in experiment [1] of 4 nM.
The compound `COc1cccc(C2=NNC(=O)/C2=N\Nc2ccccn2)c1` displayed a Ki in experiment [1] of 8 nM.
The same measure, in the same setting: as for `COc1cccc(C2=NNC(=O)/C2=N\Nc2cccnc2)c1`, the figure is 30 nM.
In turn, `COc1ccc(N/N=C2\C(=O)NN=C2c2ccc(OC)c(OC)c2)cc1` yielded a Ki in experiment [1] below 2 nM.
As to `COc1ccc(N/N=C2\C(=O)NN=C2c2cc(OC)c(OC)c(OC)c2)cc1`, in experiment [1], the Ki came to 9 nM.
`COc1cccc(C2=NNC(=O)/C2=N\Nc2ccncc2)c1`: the Ki in experiment [1] came out at 23 nM.
Still for that read-out and setting: then `COc1cccc(C2=NNC(=O)/C2=N\Nc2ccc(C(=O)O)cc2)c1`, with 6.5 nM; and `COc1ccc(C2=NNC(=O)/C2=N\Nc2ccc(N(C)C)cc2)cc1OC`, with 87 nM; and `CCN(CC)c1ccc(N/N=C2\C(=O)NN=C2c2ccc(OC)c(OC)c2)cc1`, with 2 nM.
On the same count and under the same terms, as for `COc1ccc(C2=NNC(=O)/C2=N\Nc2ccc(N3CCOCC3)cc2)cc1OC`, the figure is 3 nM.
For `COc1ccncc1C1=NNC(=O)/C1=N\Nc1ccccc1`, the Ki was 540 nM in experiment [13]; above 4000 nM in [2]; 3500 nM in experiment [4]; 290 nM in experiment [6]; 1000 nM in experiment [7]; 1800 nM in experiment [14]. Further, the Ki in experiment [8] is above 4000 nM; in experiment [9], 2500 nM; in experiment [10] it was above 4000 nM; in experiment [11], above 4000 nM; in [12], 1100 nM; in experiment [1] it was 4.5 nM.
Compound `COc1ccc(C2=NNC(=O)/C2=N\Nc2ccc(C#N)cc2)cc1OC` came in with a Ki in [1] below 2 nM.
`COc1ccc(C2=NNC(=O)/C2=N\Nc2cccnc2)cc1OC` yielded a Ki in experiment [1] below 3.5 nM.
Take `COc1ccc(C2=NNC(=O)/C2=N\Nc2ccncc2)cc1OC`: the Ki in experiment [1] is below 3.5 nM.
On the same count and under the same terms, as for `COc1ccc(C2=NNC(=O)/C2=N\Nc2cccc(Cl)c2)cc1OC`, the figure is 0.4 nM; as for `COc1ccc(C2=NNC(=O)/C2=N/Nc2ccc(Cl)cc2)cc1OC`, below 2 nM.
The compound `COc1ccncc1C1=NNC(=O)/C1=N\Nc1ccc(Cl)cc1` had a Ki in [1] of 3 nM.
The same measure, in the same setting: then `COc1cccc(N/N=C2\C(=O)NN=C2c2ccc(OC)c(OC)c2)c1`, with 0.4 nM.
Compound `COc1ccccc1N/N=C1\C(=O)NN=C1c1cnccc1OC` had a Ki in experiment [1] of 270 nM.
On the same count and under the same terms, as for `COc1ccc(C2=NNC(=O)/C2=N\Nc2ccc(N3CCOCC3)cc2)cc1`, the figure is 8 nM; as for `COc1ccc(C2=NNC(=O)/C2=N\Nc2ccccc2)cc1OC`, below 3.5 nM.

These data come from ChEMBL document CHEMBL1154953, “3-Aryl-4-(arylhydrazono)-1H-pyrazol-5-ones: Highly ligand efficient and potent inhibitors of GSK3beta” (Bioorg Med Chem Lett, 2010).
